According to article PMC12024397, “Structure–Activity Study of the Antimicrobial Lipopeptide Humimycin A and Screening Against Multidrug-Resistant Staphylococcus aureus” (Antibiotics, 2025):
Values after ≈ are worked out from the molar mass of the structure shown. Non-standard residues stand in square brackets, D forms with d. Residues, ends and D or L forms follow the SMILES beside them. *: point of attachment. Tetradecanoyl(3R-OH) = CCCCCCCCCCC[C@@H](O)CC(=O)*; Tetradecanoyl(3S-OH) = CCCCCCCCCCC[C@H](O)CC(=O)*

Assays:
human red blood cells = assay type: cell-based; conditions: red cells of human, 1 h
Description: Figure 3 The hemolytic activity of synthetic humimycin analogs 12R, 12S, 13R, and 13S on human erythrocytes. Positive control: 0.2% Triton X-100 in PBS, negative control: PBS. The data represent the mean ± standard deviation of three independent experiments.
Hemolytic potential of the humimycin analogs 12R, 12S, 13R, and 13S, was evaluated by exposing fresh, uninfected red blood cells (RBCs) to 16 two-fold serial dilutions of each analog, ranging from 512 μg/mL to 0.015 μg/mL, in RPMI-1640 medium supplemented with HEPES and containing a maximum of 0.5% dimethyl sulfoxide (DMSO). The assay was performed in round-bottom 96-well plates at a final hematocrit of 1%. Mock control wells contained RBCs in RPMI-1640 with 1% DMSO, while 100% lysis control wells contained RBCs in RPMI-1640 with 1% DMSO and 1% Triton X-100. The plates were incubated for 1 h at 37 °C under a gassed atmosphere. Following incubation, the plates were centrifuged at 800× g for 5 min, and 100 μL of supernatant from each well was transferred to a clean flat-bottom 96-well plate. The absorbance of released hemoglobin in the supernatant was measured at 405 nm using a VICTOR plate reader (PerkinElmer). The percentage of hemolysis was calculated by comparing the absorbance of the supernatant from compound-treated RBCs to that of the mock control and 100% lysis control wells. All assays were performed in triplicates.

[1] = critical micelle concentration, Nile Red fluorescence; assay type: physicochemical; conditions: overnight equilibration, intersection of linear fits of fluorescence vs log concentration
Description: Figure 4 CMC measurements of synthetic humimycin analogs 12R, 12S, 13R, and 13S. The CMC is the concentration at the intersection of the linear fits to the fluorescence intensity against log 10 concentration of peptide. Black circle: monomer; red circle: micelle.
The CMC of synthesized analogs 12R, 12S, 13R, and 13S was determined using the Nile Red fluorescence method, which takes advantage of the dye’s enhanced fluorescence emission in hydrophobic environments. A 500 μM stock solution of Nile Red was prepared in DMSO. Aliquots of 10 μL of this stock solution were added to each well and kept in the dark. Peptide solutions (200 μL) at various concentrations were then added to the well and allowed to equilibrate with the Nile Red overnight. Fluorescence emission spectra were recorded from 485 nm to 636 nm on a SpectraMax i3 spectrofluorometer with an excitation and emission bandwidth 9 nm and 15 nm, respectively. The ratio of the emission intensity was calculated for each peptide concentration and plotted against the logarithm of the peptide concentration. The CMC was determined from the intersection of the linear fits to the data points below and above the transition region in the plot. Tween-20 was used as positive control.

S. aureus strain 4-153 = conditions: broth microdilution, triplicate; isolate 4-153, no resistance profile listed
From the text: (§1) The bacterial strains used in this study included S. aureus ATCC 29213 and ATCC 43300, B. subtilis ATCC […], E. coli ATCC 25922, P. aeruginosa ATCC 27853, and S. enterica serovar Typhimurium ATCC 14028, all of which were purchased from Cedarlane, Canada. Additionally, a collection of 19 S. aureus strains, ranging from antibiotic-sensitive to multidrug-resistant, and originating from clinical intramammary infections (IMI), was selected from the Mastitis Pathogen Culture Collection of the Canadian Bovine Mastitis Research Network (Université de Montréal, St-Hyacinthe, QC, Canada). These strains, previously used in other studies, were also included in this work. S. aureus ATCC 29213 and B. subtilis ATCC 6633 were cultured in Tryptic Soy Broth (TSB) (Difco^TM, Becton, Dickenson & Company, Spark, MD, USA). E. coli ATCC 25922 and P. aeruginosa ATCC 27853 were grown in Luria–Bertani (LB) broth (Fisher Scientific, Fair Lawn, NJ, USA). S. enterica serovar Typhimurium ATCC 14028 was propagated in Nutrient Broth (NB) (Oxoid, Basingstoke, UK). All bacterial cultures were incubated overnight at 37 °C before use and during the performance of assays.
(§2) MIC assays were performed using the broth microdilution method in 96-well plates. Analogs were serially diluted two-fold from stock solutions. The plates were incubated overnight at 37 °C and bacterial growth was monitored by measuring the absorbance at 595 nm over 18–20 h and the assay was performed in triplicate.

S. aureus strain 4-121 = conditions: broth microdilution, triplicate; isolate 4-121, no resistance profile listed
From the text: as §1, §2

S. aureus strain 4-172 = conditions: broth microdilution, triplicate; isolate 4-172, resistance PEN-AMC-CEF-CTX-FOX
From the text: as §1, §2

[2] = system: Staphylococcus aureus ATCC 43300; assay type: cell-based; conditions: for MIC: ATCC 43300; for fold decrease in activity against the methicillin-resistant strain: MIC against MRSA ATCC 43300 compared with MSSA ATCC 29213
From the text: (§3) Analogs were serially diluted two-fold from stock solutions.

[3] = system: Staphylococcus aureus ATCC 29213; assay type: cell-based
From the text: as §3

S. aureus strain 4-171 = assay type: cell-based, Staphylococcus aureus; conditions: broth microdilution, triplicate; isolate 4-171, resistance PEN-AMC-CEF-CTX-FOX
From the text: as §3

S. aureus ATCC 29213 = assay: growth kinetics; assay type: cell-based, Staphylococcus aureus; conditions: TSB, 37 °C, 6 h, OD 595 nm every 2 h, peptide at MIC, three independent experiments
Description: Figure 2 Growth kinetics of S. aureus ATCC 29213 in the presence of humimycin analogs 12R, 12S, 13R, and 13S. Cultures of S. aureus were treated with various concentrations (2 × MIC, MIC, ½ × MIC, and ¼ × MIC) of the peptides and their growth was monitored by measuring the optical density at 595 nm. The positive control consisted of an untreated S. aureus culture, while the negative control contained only the growth medium without bacterial inoculation. The data represents the mean ± standard deviation of three independent experiments.
The growth kinetics of S. aureus ATCC 29213 in presence of humimycin analogs 12R, 12S, 13R, and 13S was assessed on S. aureus cultures in TSB at 37 °C in the stationary phase. The overnight culture was then diluted 1:100 in fresh TSB to achieve an initial optical density at 600 nm (OD600) of approximately 0.05. Humimycin analogs were prepared at concentrations corresponding to 0.5×, 1×, and 2× the MIC. S. aureus cultures without any analog served as the positive control and culture media was the negative control. The treated and control cultures were incubated at 37 °C for a total duration of 6 h. Absorbance readings at 595 nm were recorded every 2 h using a microplate reader to monitor the bacterial growth. The OD595 values were then plotted against time to generate bacterial growth curves. To ensure reproducibility, all experiments were performed in triplicate, with results expressed in a graph as mean ± standard deviation.

Row | Compound | HC50 (human red blood cells) | CMC [1] | MIC (S. aureus strain 4-153) | MIC (S. aureus strain 4-121) | MIC (S. aureus strain 4-172) | MIC [2] | MIC [3] | MIC (S. aureus strain 4-171) | effect on bacterial growth at MIC (S. aureus ATCC 29213) | fold decrease in activity against the methicillin-resistant strain [2]
1 | CCCCCCCCCCC[C@H](O)CC(=O)N[C@@H](Cc1c[nH]c2ccccc12)C(=O)N[C@@H](CO)C(=O)N[C@H](Cc1c[nH]c2ccccc12)C(=O)N[C@@H](Cc1ccccc1)C(=O)N[C@@H](C(=O)N[C@H](C(=O)N[C@H](C(=O)O)C(C)C)C(C)C)[C@H](C)O [12S] ({Tetradecanoyl(3S-OH)}-WS[dW]F[dT]VV-OH) | 60.8 µg/mL | ~70 µg/mL | 16 µg/mL (≈ 13.9 µM) | 32 µg/mL (≈ 27.8 µM) | 8 µg/mL (≈ 6.95 µM) | 16 µg/mL (≈ 13.9 µM) | 8 µg/mL (≈ 6.95 µM) | 1 µg/mL (≈ 0.869 µM) | effectively inhibited the growth | –
2 | CCCCCCCCCCC[C@@H](O)CC(=O)N[C@@H](Cc1c[nH]c2ccccc12)C(=O)N[C@@H](CO)C(=O)N[C@H](Cc1c[nH]c2ccccc12)C(=O)N[C@@H](Cc1ccccc1)C(=O)N[C@@H](C(=O)N[C@@H](C)C(=O)N[C@H](C(=O)O)C(C)C)[C@H](C)O [13R] ({Tetradecanoyl(3R-OH)}-WS[dW]F[dT]AV-OH) | 76.8 µg/mL | ~12 µg/mL | 32 µg/mL (≈ 28.5 µM) | 256 µg/mL (≈ 228 µM) | 8 µg/mL (≈ 7.13 µM) | 128 µg/mL (≈ 114 µM) | 4 µg/mL (≈ 3.56 µM) | 0.5 µg/mL (≈ 0.445 µM) | effectively inhibited the growth | 32 fold
3 | CCCCCCCCCCC[C@@H](O)CC(=O)N[C@@H](Cc1c[nH]c2ccccc12)C(=O)N[C@@H](CO)C(=O)N[C@H](Cc1c[nH]c2ccccc12)C(=O)N[C@@H](Cc1ccccc1)C(=O)N[C@@H](C(=O)N[C@H](C(=O)N[C@H](C(=O)O)C(C)C)C(C)C)[C@H](C)O [12R] ({Tetradecanoyl(3R-OH)}-WS[dW]F[dT]VV-OH) | 44.8 µg/mL | approximately 60 μg/mL | 16 µg/mL (≈ 13.9 µM) | 32 µg/mL (≈ 27.8 µM) | 8 µg/mL (≈ 6.95 µM) | 16 µg/mL (≈ 13.9 µM) | 16 µg/mL (≈ 13.9 µM) | 2 µg/mL (≈ 1.74 µM) | effectively inhibited the growth | –
4 | CCCCCCCCCCC[C@H](O)CC(=O)N[C@@H](Cc1c[nH]c2ccccc12)C(=O)N[C@@H](CO)C(=O)N[C@H](Cc1c[nH]c2ccccc12)C(=O)N[C@@H](Cc1ccccc1)C(=O)N[C@@H](C(=O)N[C@@H](C)C(=O)N[C@H](C(=O)O)C(C)C)[C@H](C)O [13S] ({Tetradecanoyl(3S-OH)}-WS[dW]F[dT]AV-OH) | 48 µg/mL | ~40 µg/mL | 32 µg/mL (≈ 28.5 µM) | 256 µg/mL (≈ 228 µM) | 8 µg/mL (≈ 7.13 µM) | 64 µg/mL (≈ 57 µM) | 2 µg/mL (≈ 1.78 µM) | 8 µg/mL (≈ 7.13 µM) | effectively inhibited the growth | 32 fold
